Consider two molecules from patent US20200000775A1, “ATTENUATION OF NEUROPATHIC PAIN AFTER SPINAL CORD INJURY” (University of Kentucky Research Foundation, priority 2018, published 2020).

The conditions of series [1]: cited from earlier work.
The conditions of series [2]: rats, pigs, sheep, dogs or humans; cited from earlier work.
In a further series the test system is acetylated α-tubulin. In words: Immunofluorescence of acetylated α-tubulin in spinal dorsal horn after excitotoxic SCI. The format is in vivo, rat. The following applies: IP for 7 days from 3 h post-QUIS; lesion site, 28 days after injury; vs vehicle, p<0.001. The source says:
(§1) Twenty-four male SD rats were randomly assigned to three groups: (A) FluBZ treatment plus intraspinal injection of QUIS (n=10); (B) vehicle treatment plus intraspinal injection of QUIS (n=10); and (C) Sham operation (intraspinal injection of saline, n=4). Assessment of excessive grooming behavior was used to evaluate the effects of FluBZ or vehicle on the development of the spontaneous pain behavior following excitotoxic SCI. The survival time of animals consisted of a period of 4 weeks or until tissue damage progressed beyond the superficial layers of skin, at which time (<4 weeks) animals were euthanized. FluBZ (10 mg/kg/day) or vehicle was intraperitoneally injected once daily for a period of 7 days post-injection of QUIS. The FluBZ or vehicle treatment began at 3 h post-QUIS injection. FluBZ (Sigma) was dissolved in 0.9% saline plus 0.01% Tween 80 (Vehicle). […]
(§2) The stereological analysis of image data within dorsal horn of spinal cord in sham or QUIS-injured animals with treatment of FluBZ or vehicle will be performed using NIS-Elements AR program. Serial double-labeled immunofluorescent signal images of spinal cord sections at lesion epicenter and 2 mm rostral and caudal to the lesion site were analyzed using methods of Binary Layers and Automated Measurement Results. […]

For a further series, the system named is endosomal EEA1-NR1. In words: Immunofluorescence of endosomal EEA1-NMDAR1 (NR1) dual signal in spinal dorsal horn after excitotoxic SCI. The following applies: post-treatment, 28 days post-excitotoxic injury; vs vehicle, p<0.001. It is filed as in vivo, rat.
Description: as §1, §2

In series [3] the test system is α-tubulin N-acetyltransferase ATAT1/MEC-17. Kind of series: Immunofluorescence of α-tubulin acetyltransferase MEC-17 in spinal dorsal horn after excitotoxic SCI. It is filed as in vivo, rat. The note with it: IP for 7 days from 3 h post-QUIS; lesion site, 28 days after injury; vs vehicle, p<0.01.
Description: as §1, §2

The test system of a further series is mitochondrial cyclin B1. Kind of series: Immunofluorescence of mitochondrial cyclin B1 (cyclin B1/VDAC1 dual signal) in spinal dorsal horn after excitotoxic SCI. It is filed as in vivo, rat. The following applies: 10 mg/kg/day for 7 days post-injury; 28 days following injury; vs vehicle, p<0.001.
Description: as §1, §2

The test system of series [4] is rat excitotoxic SCI pain model. Kind of series: Spontaneous pain-related excessive grooming behavior after excitotoxic SCI (intraspinal QUIS). The format is in vivo.
Description: Male Sprague-Dawley (SD) adult rats at 3 months, weighing 220-250 g, were used (Charles River, Indianapolis, Ind.). Rats were kept under standard housing conditions (12:12 light and dark cycle) with food and water ad libitum for at least 1 week following arrival in an enclosed, pathogen-free animal facility. All experimental procedures were approved and carried out in accordance with the Guidelines of the US National Institutes of Health and Institutional Animal Care and Use Committee (IACUC) of the University of Kentucky.
Excitotoxic SCI was produced by intraspinal injection of the glutamatergic AMPA/metabotropic receptor agonist quisqualic acid (QUIS) as previously described. Briefly, rats were anesthetized with a mixture of ketamine and xylazine (intraperitoneally, IP). Animals were placed in a stereotaxic unit and the spinal column immobilized with a vertebral clamp. One injection window for intraspinal injection was made by laminectomy between spinal segments T12-L1. Injections of 125 mM QUIS was made unilaterally at three levels of the cord by convection enhanced delivery. Injections, spaced 0.3 mm apart, were made at a depth of 1000 μm below the surface in segments T12-L1 between the dorsal root entry zone and the dorsal vein. These coordinates place injections in the center of the gray matter between spinal laminae IV-VI. The total volume of QUIS injected was 1.2 μl (0.4 μl each site, delivered over 4 minutes). Following injections, muscles were sutured over the laminectomy site, and the skin closed with wound clips.
as §1, with “euthanized.” for “euthanized. FluBZ (10 mg/kg/day) or vehicle was intraperitoneally injected once daily for a period of 7 days post-injection of QUIS. The FluBZ or vehicle treatment began at 3 h post-QUIS injection. FluBZ (Sigma) was dissolved in 0.9% saline plus 0.01% Tween 80 (Vehicle).”
Assessment of the spontaneous pain-related excessive grooming behavior was performed as described in previous studies. […] Quantitative analysis of spontaneous excessive grooming pain behavior consisted of the incidence, onset time, mean area of skin damage, and severity of overgrooming pain behaviors for all animals as previously described.
Data related to the onset time, area of grooming-induced skin damage, and immunofluorescent number of object and mean intensity are expressed as mean ±standard error of mean (SEM) and analyzed by using a commercially available computer program (StatView; SAS Institute, Inc, Cary, N.C.). […]

A further series relates to endosomal EEA1-pERK1/2. Kind of series: Immunofluorescence of endosomal EEA1-pERK1/2 dual signal in spinal dorsal horn after excitotoxic SCI. The note with it: IP treatment, 28 days post-injury; vs vehicle, p<0.001. The format is in vivo, rat.
Description: as §1, §2

As to `COC(=O)Nc1nc2ccc(Sc3ccccc3)cc2[nH]1` [FBZ, fenbendazole], the “solubility in aqueous systems” value in series [1] is on record as “poorly soluble”. In series [2], the “bioavailability after oral treatment” value is recorded as “very low”.

For `COC(=O)Nc1nc2cc(C(=O)c3ccc(F)cc3)ccc2[nH]1` [FluBZ, Flubendazole], the “α-tubulin acetylation in the spinal dorsal horn” value in the series with acetylated α-tubulin is recorded as “significantly decreased”. Besides, the “endosomal EEA1-NR1 fluorescent signals in the dorsal horn” value with endosomal EEA1-NR1 is “significantly suppressed”. Also, the “expression of acetyltransferase MEC-17 in the spinal dorsal horn” value in series [3] was “significantly decreased”. Moreover, in the series on mitochondrial cyclin B1, the “mitochondrial cyclin b1 activity in the dorsal horn” value was “significantly reduced”. In series [1], the “solubility in aqueous systems” value was “poorly soluble”. In addition, the “incidence of pain behavior” value in series [4] (10 mg/kg/day IP for 7 days, starting 3 h post-injury, vehicle-treated control 75%) is recorded as 40%. The “onset of excessive grooming pain behaviors” value in series [4] (10 mg/kg/day IP once daily for 7 days, starting 3 h post-QUIS, vehicle average onset 11 days, n=10) is 19 days after excitotoxic injury. The “size of the grooming area (skin damage)” value in series [4] (10 mg/kg/day for one week post-excitotoxic injury, vs vehicle, p<0.001) was “significant reduction”. In series [4] (10 mg/kg/day for one week post-excitotoxic injury, vs vehicle, p<0.01), the “severity of grooming class” value is listed as “significant reduction”. Also, the “endosomal EEA1-pERK1/2 fluorescent binary number object, binary area fraction, binary area, and mean intensity in the dorsal horn” value with endosomal EEA1-pERK1/2 was “significantly inhibited”. Besides, in series [2], the “bioavailability after oral treatment” value is on record as “very low”.
